This is an account of results in patent US10752588B2 (The Broad Institute, Inc., priority 2014, dated 2020).

Test [1] concerns the target T1, human D2R/β-arrestin (Homo sapiens (Human), UniProt P14416). The test can be described thus: cell-based. Conditions: β-arrestin Antagonist, CHO-K1 cell line expressing human D2R/β-arrestin; quinpirole used as agonist.
In test [2] the target is T1, human D2R/β-arrestin. Nature of the test: Gi/cAMP agonist assay (Lance Ultra cAMP, Forskolin). The format is cell-based. Conditions: CHO-K1 cell line expressing human D2R/β-arrestin. Summed up:
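Cells were plated and incubated before compounds were pin-transferred and incubated for 10 min at 37 °C. Forskolin was then added to stimulate cAMP. cAMP was detected by Lance Ultra TR-FRET using Eu-cAMP tracer and ULight-anti-cAMP antibody.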

Test [3] addresses T1, human D2R/β-arrestin. The test can be described thus: β-Arrestin agonist assay (PathHunter). Particulars: CHO-K1 cell line expressing human D2R/β-arrestin. The format is cell-based. In short, it runs like this:
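After compound incubation, detection reagent (Buffer:Emerald II:Galactor-Star, 19:5:1) added and luminescence or fluorescence read.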

Test [4] concerns the target T1, human D2R/β-arrestin. Nature of the test: cell-based. Particulars: cAMP Antagonist, CHO-K1 cell line expressing human D2R/β-arrestin; quinpirole used as agonist.

Where only a bound is given, the exact number is not on record here.

T1 sequence (P14416 whole entry): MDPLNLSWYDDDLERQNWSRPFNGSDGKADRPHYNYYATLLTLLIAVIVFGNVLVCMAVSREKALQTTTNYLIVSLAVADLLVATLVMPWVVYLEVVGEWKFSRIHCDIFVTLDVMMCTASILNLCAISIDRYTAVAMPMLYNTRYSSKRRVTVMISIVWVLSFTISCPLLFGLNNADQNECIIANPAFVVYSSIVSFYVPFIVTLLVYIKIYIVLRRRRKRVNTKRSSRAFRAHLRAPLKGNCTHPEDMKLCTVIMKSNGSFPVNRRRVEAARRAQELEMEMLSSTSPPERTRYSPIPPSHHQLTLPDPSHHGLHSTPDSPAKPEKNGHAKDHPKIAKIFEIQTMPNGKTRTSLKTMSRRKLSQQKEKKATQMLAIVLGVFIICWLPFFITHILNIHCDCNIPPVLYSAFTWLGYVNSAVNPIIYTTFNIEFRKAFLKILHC

As for `CC(C1CCN(CCOc2ccccc2)CC1)N(C)C(c1ccc(Cl)cc1)c1ccccn1` (single isomer, unassigned) [Compound 97c, N-((4-chlorophenyl)(pyridin-2-yl)methyl)-N-methyl-1-(1-(2-phenoxyethyl)piperidin-4-yl)ethan-1-amine], the half-maximal inhibitory concentration (IC50) on human D2R/β-arrestin [1] and at human D2R/β-arrestin [4] was below 0.1 µM in each case. For the same compound, the 50% effective concentration (EC50) at human D2R/β-arrestin [2] and on human D2R/β-arrestin [3] was above 30 µM each time.
In the case of `Fc1ccc(C(NCC2CCN(CCOc3ccccc3F)CC2)c2ccccn2)cc1` (stereo not drawn) [Compound 122, N-((1-(2-(2-fluorophenoxy)ethyl)piperidin-4-yl)methyl)-1-(4-fluorophenyl)-1-(pyridin-2-yl) methanamine], the IC50 on human D2R/β-arrestin [1] and at human D2R/β-arrestin [4] was 0.1 to 1 µM each time. Further, the figures for the EC50 at human D2R/β-arrestin [2] and on human D2R/β-arrestin [3] were 1 to 10 µM and above 30 µM, respectively.
Turning to `O=C(NC1CCN(CCOc2ccccc2)CC1)C(c1ccc(Cl)cc1)c1ccccn1` (stereo not drawn) [Compound 126, 2-(4-chlorophenyl)-N-(1-(2-phenoxyethyl)piperidin-4-yl)-2-(pyridin-2-yl)acetamide], the results for the 50% inhibitory concentration (IC50) at human D2R/β-arrestin [1] and at human D2R/β-arrestin [4] were 1 to 10 µM and above 30 µM, respectively. Also, the half-maximal effective concentration (EC50) is below 0.1 µM at human D2R/β-arrestin [2] and above 30 µM on human D2R/β-arrestin [3].
Take `COc1cccc(C(c2ccccn2)N(C)CC2CCN(CCOc3ccccc3)CC2)c1` (stereo not drawn) [Compound 76, 1-(3-methoxyphenyl)-N-methyl-N-((1-(2-phenoxyethyl)piperidin-4-yl)methyl)-1-(pyridin-2-yl)methanamine]: the IC50 at human D2R/β-arrestin [1] is 1 to 10 µM; at human D2R/β-arrestin [4], 10 to 30 µM. Further, the EC50 is below 0.1 µM at human D2R/β-arrestin [2] and above 30 µM on human D2R/β-arrestin [3].
The matching figures for `O=C(NC(c1ccc(Cl)cc1)c1ccccn1)C1CCN(CCOc2ccncc2)CC1` (stereo not drawn) [Compound 142, N-((4-chlorophenyl)(pyridin-2-yl)methyl)-1-(2-(pyridin-4-yloxy)ethyl)piperidine-4-carboxamide]: 10 to 30 µM, 10 to 30 µM, above 30 µM and above 30 µM.
Take `O=C(NC(c1ccc2c(c1)OC(F)(F)O2)c1ccccn1)C1CCN(CCOc2ccccc2)CC1` (stereo not drawn) [Compound 119]: the half-maximal inhibitory concentration (IC50) was 0.1 to 1 µM on human D2R/β-arrestin [1] and above 30 µM on human D2R/β-arrestin [4]. Besides, the EC50 on human D2R/β-arrestin [2] is below 0.1 µM; at human D2R/β-arrestin [3], above 30 µM.
In the case of `CC(C)N(CC1CCN(CCOc2ccccc2F)CC1)C(c1ccc(Cl)cc1)c1ccccn1` (stereo not drawn) [Compound 133, N-((4-chlorophenyl)(pyridin-2-yl)methyl)-N-((1-(2-(2-fluorophenoxy)ethyl)piperidin-4-yl)methyl)propan-2-amine], the IC50 on human D2R/β-arrestin [1] and at human D2R/β-arrestin [4] was below 0.1 µM each time. The values for the 50% effective concentration (EC50) at human D2R/β-arrestin [2] and at human D2R/β-arrestin [3] were below 0.1 µM and above 30 µM, respectively.
`O=C(NC(c1ccc(Cl)cc1)c1ccc(F)cn1)C1CCN(CCOc2ccccc2F)CC1` (single isomer, unassigned) [Compound 92b, N-((4-chlorophenyl)(5-fluoropyridin-2-yl)methyl)-1-(2-(2-fluorophenoxy)ethyl)piperidine-4-carboxamide]: the IC50 at human D2R/β-arrestin [1] and on human D2R/β-arrestin [4] was 1 to 10 µM each time. In addition, the EC50 on human D2R/β-arrestin [2] was 10 to 30 µM; on human D2R/β-arrestin [3] it was above 30 µM.
Consider `Fc1ccccc1OCCN1CCC(CNC(c2ccc3c(c2)OCO3)c2ccccn2)CC1` (stereo not drawn) [Compound 139, 1-(benzo[d][1,3]dioxol-5-yl)-N-((1-(2-(2-fluorophenoxy)ethyl)piperidin-4-yl)methyl)-1-(pyridin-2-yl)methanamine], for which the IC50 at human D2R/β-arrestin [1] was in the range of 1 to 10 µM; on human D2R/β-arrestin [4], 0.1 to 1 µM. For the same compound, the results for the concentration for a half-maximal effect (EC50) on human D2R/β-arrestin [2] and on human D2R/β-arrestin [3] were 1 to 10 µM and above 30 µM, respectively.
In the case of `O=C(NC(c1ccc(Cl)cc1)c1ccccn1)C1CCN(CCCOc2ccccc2)CC1` (stereo not drawn) [Compound 62, N-((4-chlorophenyl)(pyridin-2-yl)methyl)-1-(3-phenoxypropyl)piperidine-4-carboxamide], the IC50 on human D2R/β-arrestin [1] lay within 1 to 10 µM; on human D2R/β-arrestin [4], 0.1 to 1 µM. The EC50 on human D2R/β-arrestin [2] and on human D2R/β-arrestin [3] was above 30 µM throughout.
Turning to `Fc1ccc(C(NCC2CCN(CCOc3ccccc3)CC2)c2ccccn2)cc1` (single isomer, unassigned) [Compound 78a, 1-(4-fluorophenyl)-N-((1-(2-phenoxyethyl)piperidin-4-yl)methyl)-1-(pyridin-2-yl)methanamine], the IC50 at human D2R/β-arrestin [1] and on human D2R/β-arrestin [4] was 1 to 10 µM in each case. Moreover, the concentration giving a half-maximal response (EC50) at human D2R/β-arrestin [2] was 0.1 to 1 µM; at human D2R/β-arrestin [3] it was above 30 µM.
`Clc1ccc(C(c2ccccn2)N2CC3CCN(CCOc4ccccc4)CC3C2)cc1` (stereo not drawn) [Compound 98, 2-((4-chlorophenyl)(pyridin-2-yl)methyl)-5-(2-phenoxyethyl)octahydro-1H-pyrrolo[3,4-c]pyridine]: the IC50 on human D2R/β-arrestin [1] and at human D2R/β-arrestin [4] was above 30 µM in each case. Besides, the 50% effective concentration (EC50) at human D2R/β-arrestin [2] was below 0.1 µM; at human D2R/β-arrestin [3] it was 0.1 to 1 µM.
Consider `O=C(NC(c1ccc(Cl)cc1)c1ccncc1F)C1CCN(CCOc2ccccc2F)CC1` (single isomer, unassigned) [Compound 91a, N-((4-chlorophenyl)(3-fluoropyridin-4-yl)methyl)-1-(2-(2-fluorophenoxy)ethyl)piperidine-4-carboxamide], for which the concentration for half-maximal inhibition (IC50) at human D2R/β-arrestin [1] was 1 to 10 µM; at human D2R/β-arrestin [4], above 30 µM. The concentration for a half-maximal effect (EC50) at human D2R/β-arrestin [2] was 0.1 to 1 µM; on human D2R/β-arrestin [3] it was above 30 µM.
For `CC(C1CCN(CCOc2ccccc2)CC1)N(C)C(c1ccc(Cl)cc1)c1ccccn1` (single isomer, unassigned) [Compound 97d, N-((4-chlorophenyl)(pyridin-2-yl)methyl)-N-methyl-1-(1-(2-phenoxyethyl)piperidin-4-yl)ethan-1-amine], the IC50 on human D2R/β-arrestin [1] and at human D2R/β-arrestin [4] was 0.1 to 1 µM throughout. Moreover, the EC50 at human D2R/β-arrestin [2] and on human D2R/β-arrestin [3] was above 30 µM each time.
Regarding `O=C(NC(c1cccc(OC(F)(F)F)c1)c1ccccn1)C1CCN(CCOc2ccccc2)CC1` (stereo not drawn) [Compound 118, 1-(2-phenoxyethyl)-N-(pyridin-2-yl(3-(trifluoromethoxy)phenyl)methyl) piperidine-4-carboxamide], the values for the half-maximal inhibitory concentration (IC50) on human D2R/β-arrestin [1] and on human D2R/β-arrestin [4] were 1 to 10 µM and above 30 µM, respectively. The concentration giving a half-maximal response (EC50) at human D2R/β-arrestin [2] is below 0.1 µM; at human D2R/β-arrestin [3], above 30 µM.
Regarding `O=C(NC(c1ccc(F)cc1)c1ccc(F)cc1)C1CCN(CCOc2ccccc2Cl)CC1` [Compound 83, N-(bis(4-fluorophenyl)methyl)-1-(2-(2-chlorophenoxy)ethyl)piperidine-4-carboxamide], the IC50 on human D2R/β-arrestin [1] and on human D2R/β-arrestin [4] was below 0.1 µM throughout. Further, the 50% effective concentration (EC50) on human D2R/β-arrestin [2] and on human D2R/β-arrestin [3] was above 30 µM throughout.
Consider `O=C(NC(c1ccc(F)cc1)c1ccccc1F)C1CCN(CCOc2ccccc2Cl)CC1` (stereo not drawn) [Compound 85, 1-(2-(2-chlorophenoxy)ethyl)-N-((2-fluorophenyl)(4-fluorophenyl)methyl)piperidine-4-carboxamide], for which the IC50 at human D2R/β-arrestin [1] and on human D2R/β-arrestin [4] was below 0.1 µM each time. The 50% effective concentration (EC50) on human D2R/β-arrestin [2] and at human D2R/β-arrestin [3] was above 30 µM in each case.
On to `COc1cccc(C(NC(=O)C2CCN(CCOc3ccc(F)cc3F)CC2)c2ccccn2)c1` (single isomer, unassigned) [Compound 145b, 1-(2-(2,4-difluorophenoxy)ethyl)-N-((3-methoxyphenyl)(pyridin-2-yl)methyl)piperidine-4-carboxamide], for which the figures for the IC50 on human D2R/β-arrestin [1] and on human D2R/β-arrestin [4] were 1 to 10 µM and 0.1 to 1 µM, respectively. Further, the 50% effective concentration (EC50) on human D2R/β-arrestin [2] and at human D2R/β-arrestin [3] was above 30 µM in each case.
Consider `O=C(NC(c1ccc(Cl)cc1)c1ccccn1)C1CCN(CCOc2ccc(Cl)cc2)CC1` (stereo not drawn) [Compound 2, 1-(2-(4-chlorophenoxy)ethyl)-N-((4-chlorophenyl)(pyridine-2-yl)methyl) piperidine-4-carboxamide], for which the 50% inhibitory concentration (IC50) on human D2R/β-arrestin [1] is 1 to 10 µM; on human D2R/β-arrestin [4], above 30 µM. In addition, the figures for the EC50 on human D2R/β-arrestin [2] and on human D2R/β-arrestin [3] were 0.1 to 1 µM and above 30 µM, respectively.
Consider `Clc1cccc(C2CCN(CCCOc3ccc4scnc4c3)CC2)c1Cl` [UNC9994, reference compound], for which the results for the IC50 on human D2R/β-arrestin [1] and at human D2R/β-arrestin [4] were 0.1 to 1 µM and above 30 µM, respectively. Moreover, the figures for the 50% effective concentration (EC50) at human D2R/β-arrestin [2] and at human D2R/β-arrestin [3] were below 0.1 µM and 0.1 to 1 µM, respectively.
Turning to `O=C(NC(c1ccc(F)cc1)c1ccccn1)C1CCN(Cc2cc3ccccc3o2)CC1` (stereo not drawn) [Compound 59], the IC50 on human D2R/β-arrestin [1] was above 30 µM; at human D2R/β-arrestin [4], 10 to 30 µM. For the same compound, the half-maximal effective concentration (EC50) at human D2R/β-arrestin [2] and on human D2R/β-arrestin [3] was above 30 µM in each case.
On to `O=C(NC(c1ccccc1F)c1ccccc1F)C1CCN(CCOc2ccccc2Cl)CC1` [Compound 84, N-(bis(2-fluorophenyl)methyl)-1-(2-(2-chlorophenoxy)ethyl)piperidine-4-carboxamide], for which the half-maximal inhibitory concentration (IC50) at human D2R/β-arrestin [1] and at human D2R/β-arrestin [4] was 0.1 to 1 µM throughout. The concentration for a half-maximal effect (EC50) at human D2R/β-arrestin [2] and at human D2R/β-arrestin [3] was above 30 µM each time.
With `Fc1ccccc1OCCN1CCC(CN(CC(F)(F)F)C(c2ccc(Cl)cc2)c2ccccn2)CC1` (single isomer, unassigned) [Compound 136a, N-((4-chlorophenyl)(pyridin-2-yl)methyl)-2,2,2-trifluoro-N-((1-(2-(2-fluorophenoxy)ethyl)piperidin-4-yl)methyl)ethan-1-amine], the half-inhibitory concentration (IC50) at human D2R/β-arrestin [1] is 0.1 to 1 µM; at human D2R/β-arrestin [4], above 30 µM. The concentration giving a half-maximal response (EC50) on human D2R/β-arrestin [2] is 1 to 10 µM; on human D2R/β-arrestin [3], 0.1 to 1 µM.
Consider `CN(CC1CCN(CCOc2ccccc2F)CC1)C(c1ccc(Cl)cc1)c1ccccn1` (single isomer, unassigned) [Compound 72b, 1-(4-chlorophenyl)-N-((1-(2-(2-fluorophenoxy)ethyl)piperidin-4-yl)methyl)-N-methyl-1-(pyridin-2-yl)methanamine], for which the 50% inhibitory concentration (IC50) at human D2R/β-arrestin [1] and on human D2R/β-arrestin [4] was below 0.1 µM each time. Also, the EC50 on human D2R/β-arrestin [2] and on human D2R/β-arrestin [3] was above 30 µM in each case.
